The values below are quoted from earlier work in patent publication US20210113664A1, “IMPLANTS FOR RELEASE OF LIPOPHILIC OR AMPHIPHILIC PHARMACEUTICAL SUBSTANCES” (Titan Pharmaceuticals, Inc., priority 2018, published 2021).

For this data set the following is noted: values as reported by PubChem.

As to `N[C@@H](Cc1cc(I)c(Oc2cc(I)c(O)c(I)c2)c(I)c1)C(=O)O` [levothyroxine], the “log Poct” value is on record as “about 4”.
Take `CC#CCC(C)[C@H](O)/C=C/[C@@H]1[C@H]2C/C(=C/CCCC(=O)O)C[C@H]2C[C@H]1O` (some centres unmarked) [iloprost]: the “log Poct” value is reported as “about 4.8”.
